Measured values reported in publication PMC8318231, “Rate-of-Kill (RoK) assays to triage large compound sets for Chagas disease drug discovery: Application to GSK Chagas Box” (PLoS Neglected Tropical Diseases, 2021).

How the values were obtained:
[1] = system: T. cruzi Tulahuen trypomastigotes; experiment: T. cruzi trypomastigote assay (Cell Titer-Glo viability, ATP luminescence); assay type: cell-based, Trypanosoma cruzi; conditions: for Trypomastigotes pIC50 48 hours: 48 hours incubation; for Trypomastigotes pIC50 48 hours / Trypomastigotes pIC50 72 hours: pIC50 = -log10 IC50 in molar units; for Trypomastigotes pIC50 72 hours: 72 hours incubation; for 72 pIC50 (trypomastigotes, raw data of Fig 1D): 72 hours, plotted values, censored values given without sign; for 48 pIC50 / 72 pIC50: trypomastigote assay; for 48 pIC50: 48 h; for 72 pIC50: 72 h
Procedure, shortened: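 Tulahuen trypomastigotes from infected LLC-MK2 culture supernatants (days 5–8) plated at 5 × 10^4 per well in DMEM/2% FBS with compound at 5 μM single-shot final or in dose response. Viability by CellTiter-Glo ATP luminescence after 10 min at room temperature, normalised to no-cell (100%) and DMSO (0%) controls.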

[2] = system: H9c2 (rat cardiomyocytes); experiment: RoK assay, number of host cells nuclei (drug-related cytotoxicity, H9c2 output, Cmin_Tox); conditions: H9c2 host cells
Procedure, shortened: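 H9c2 rat cardiomyocytes infected with T. cruzi trypomastigotes, plated in 384-well format, compound-treated and imaged over a time course. Host nuclei counted after formaldehyde fixation and DRAQ5 staining by high-content imaging. Cmin_Tox is the lowest concentration reducing host cells below 50% of initial density.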

TcCYP51 = conditions: formerly reported; cited from earlier work

Compound	Trypomastigotes pIC50 48 hours [1]	Trypomastigotes pIC50 72 hours [1]	72 pIC50 (trypomastigotes, raw data of Fig 1D) [1]	48 pIC50 ([1]; figure 1A)	72 pIC50 ([1]; figure 1A)	72 pIC50 ([1]; figure 1B)	Cmin_Tox [2]	CYP51 pIC50 (TcCYP51)
O=C(NCC1CCCCC1)c1cc(=O)c2ccccc2o1 [TCMDC-123621]	5	5	5	5	5	5	50.0 µM	< 4
Cl.O=c1cc(NCCCNC2CCOc3c(I)cc(Cl)cc32)[nH]c2ccccc12 (stereo not drawn) [TCMDC-139489]	5.8	6	–	–	–	–	50.0 µM	4.8
Cc1cccc(N2CCCN(Cc3c[nH]c4ccccc34)CC2)n1 [TCMDC-143185]	6.7	–	–	–	–	–	5.6 µM	< 4
O=C(NCCc1cccnc1)c1ccc(-c2ccccc2F)o1 [TCMDC-143190]	< 4.3	< 4.3	< 4.3	< 4.3	< 4.3	< 4.3	>50 µM	7.2
COc1ccc(NS(=O)(=O)c2cc(-c3cc(C)[nH]n3)ccc2C)cc1OC [TCMDC-143194]	4.7	5.2	–	–	–	–	18.5 µM	4.4
O=S(=O)(c1cccc(CSc2nnc(-c3ccc4c(c3)OCO4)o2)c1)N1CCOCC1 [TCMDC-143197]	< 4.3	< 4.3	< 4.3	< 4.3	< 4.3	< 4.3	>50 µM	4.9
CC1CN(S(=O)(=O)c2ccc(NC(=O)c3cc(C4CC4)nc4c3cnn4C(C)C)cc2)CC(C)O1 (stereo not drawn) [TCMDC-143200]	5.3	4.8	–	–	–	–	>50 µM	< 4
O=C(NCCc1cccnc1)c1csc(-c2ccccc2)n1 [TCMDC-143203]	< 4.3	< 4.3	< 4.3	< 4.3	< 4.3	< 4.3	>50 µM	7.2
CC(=O)Nc1nc(-c2cc(C)ccc2C)c(C)s1 [TCMDC-143207]	< 4.3	< 4.3	< 4.3	< 4.3	< 4.3	< 4.3	>50 µM	< 4
Cn1nccc1-c1cc(OC(CN)c2ccccc2)cnc1-c1ccco1.O=C(O)C(F)(F)F.O=C(O)C(F)(F)F (stereo not drawn) [TCMDC-143221]	4.4	< 4.3	–	–	–	–	>50 µM	7.2
CS(=O)(=O)c1ccc(CC(=O)Nc2nc(-c3ccc(Cl)s3)cs2)cc1 [TCMDC-143224]	< 4.3	< 4.3	< 4.3	< 4.3	< 4.3	< 4.3	>50 µM	< 4
CCN(C)Cc1ccc(N2CCC(NS(=O)(=O)c3ccc4c(c3)CCO4)CC2)nc1 [TCMDC-143244]	< 4.3	< 4.3	< 4.3	< 4.3	< 4.3	< 4.3	>50 µM	< 4
COc1ccc(S(=O)(=O)NC(C)C)cc1Nc1ncc(-c2cccc(F)c2)cn1 [TCMDC-143248]	< 4.3	< 4.3	< 4.3	< 4.3	< 4.3	< 4.3	>50 µM	< 4
O=C(NCCc1ccccc1Cl)c1cccn1-c1cccnc1 [TCMDC-143253]	< 4.3	< 4.3	< 4.3	< 4.3	< 4.3	< 4.3	>50 µM	7.1
COc1ccc(S(=O)(=O)Nc2ccccc2OC)cc1NC(=O)CCCc1c[nH]c2ccccc12 [TCMDC-143256]	5	4.9	–	–	–	–	>50 µM	< 4
COc1ccc2c(Cl)c(C(=O)N3CCC3)sc2c1Cl [TCMDC-143262]	6.2	6.4	–	–	–	–	>50 µM	< 4
CCN(CC)S(=O)(=O)c1ccc(C(=O)Nc2cc(C)nn2-c2nc(C)c(C)c(=O)[nH]2)cc1 [TCMDC-143273]	6.2	6.3	–	–	–	–	>50 µM	< 4
COc1ccc(C(C)(C)C)cc1S(=O)(=O)n1ccnc1 [TCMDC-143275]	< 4.3	< 4.3	< 4.3	< 4.3	< 4.3	< 4.3	>50 µM	8.1
CCCn1c(NC(=O)Cc2ccc(Cl)cc2)nc2ccccc21 [TCMDC-143279]	5.9	6	–	–	–	–	>50 µM	< 4
CCC(=O)Nc1ccc(C(=O)Nc2ccccc2-c2ccccc2)cc1 [TCMDC-143286]	5.9	6	–	–	–	–	>50 µM	< 4
Cc1cccnc1CN1CCN(CCCOc2ccc(-c3ccc(C(N)=O)cc3)cc2)CC1 [TCMDC-143291]	4.8	4.4	–	–	–	–	>50 µM	< 4
COc1ccc(C(C)N(C)c2ncc3c(N)nc(N)nc3n2)cc1F (stereo not drawn) [TCMDC-143298]	6.5	6.7	–	–	–	–	>50 µM	< 4
O=C(NCc1ccncc1)c1ccccc1N1CCCN(C(=O)Cc2ccc(F)c(F)c2)CC1.O=C(O)C(F)(F)F.O=C(O)C(F)(F)F [TCMDC-143300]	< 4.3	< 4.3	< 4.3	< 4.3	< 4.3	< 4.3	>50 µM	7.1
O=C(O)C(F)(F)F.O=c1ccc2ccc(F)c3c2n1C[C@H]3CN1CCC(NCc2cc3ccccc3o2)CC1 [TCMDC-143301]	4.5	4.4	–	–	–	–	>50 µM	4.5
CS(=O)(=O)NC1CCC(Oc2cc3cnccc3cc2-c2ccsc2)CC1.O=C(O)C(F)(F)F (stereo not drawn) [TCMDC-143302]	4.5	< 4.3	–	–	–	–	>50 µM	7.6
Cc1c(C(=O)NCCCCn2ccnc2)oc2c(C)cccc12 [TCMDC-143304]	< 4.3	< 4.3	< 4.3	< 4.3	< 4.3	< 4.3	>50 µM	7
COc1ccc(C(=O)Nc2cc(C(F)(F)F)ccc2N2CCOCC2)c(OC)c1 [TCMDC-143310]	5.8	6	–	–	–	–	>50 µM	< 4
FC(F)(F)c1cc(C2CCCN(Cc3c[nH]c4ccccc34)C2)nc2ncnn12.O=C(O)C(O)C(O)C(=O)O (stereo not drawn) [TCMDC-143311]	4.9	5.2	–	–	–	–	>50 µM	–
COc1ccc(NS(=O)(=O)c2cc(NC(=O)Cc3ccc(C)cc3)ccc2N2CCOCC2)cc1 [TCMDC-143313]	5.9	6.3	–	–	–	–	0.6 µM	< 4
COc1cc(NC(=O)Nc2cccc(CNC(=O)OC3CCCCC3)c2)ccc1-c1cnco1 [TCMDC-143376]	–	4.9	–	–	–	–	16.7 µM	4.6
